Source: US11857592B2, “Polygala extract for the treatment of attention-deficit hyperactivity disorder” (BioLite, Inc., priority 2020, dated 2024)

Test system: ICR male mice
Test: In vivo tetrabenazine-induced hypothermia assay
Settings: for activity discovered through in vivo tetrabenazine-induced hypothermia test: antidepressant-like activity in mice; for temperature recovery of TBZ-induced hypothermic response: oral gavage 60 min before TBZ 85 mg/kg i.p., 120 min after TBZ challenge
Source text: The around 70% of PDC-1421 in Example 1 are composed of sucroester (34%), saponin (18%) and xanthone (17%). Some active compounds of in the powder product of Example 1, including polygalatenosides A/B/C (2nd fraction 1), ploygalaxanthone III, sibiricoses A5, and 7-O-methylmangiferin are also discovered through in vivo tetrabenazine-induced hypothermia test (one of rodent models for evaluating antidepressant-like activity in mice). Imipramine (as the positive control), PDC-1421, 1st Fraction 10-19, 1st Fraction 33, 2nd Fraction-1 (wherein the major components are polygalatenosides A/B/C), 2nd Fraction-3, TMCA, Polygalaxanthone III, Onjisaponin B, Sibiricose A5, 7-O-Methylmangiferin and Sibiricaxanthone B are dissolved in water for injection (WFI) and administered by oral gavage. The dosing volume is 10 mL/kg. Test substances and vehicle (WFI) are administered by oral gavage to groups of 8 ICR male mice weighing 23±3 g for 60 minutes, and then tetrabenazine (TBZ, 85 mg/kg) is injected intraperitoneally. Body temperature is recorded before (0 min), and 60, 90 and 120 min after TBZ challenge. Therefore, drug-induced hypothermia (e.g., TBZ and reserpine) animal model is a typical experiment to evaluate the activity of NRI on depression. Temperature recovery of TBZ-induced hypothermic response is considered as indication of a anti-depressant activity.

Compound	activity discovered through in vivo tetrabenazine-induced hypothermia test	temperature recovery of TBZ-induced hypothermic response
COc1cc2c(=O)c3c(O)c([C@@H]4O[C@H](CO)[C@@H](O)[C@H](O)[C@H]4O)c(O)cc3oc2cc1O [7-O-Methylmangiferin]	active	had a temperature recovery
COc1cc2c(=O)c3c(O)c([C@@H]4O[C@H](CO[C@@H]5OC[C@](O)(CO)[C@H]5O)[C@@H](O)[C@H](O)[C@H]4O)c(O)cc3oc2cc1O [Polygalaxanthone III]	active	had a temperature recovery
COc1cc(/C=C/C(=O)O[C@H]2[C@H](O)[C@@H](CO)O[C@@]2(CO)O[C@H]2O[C@H](CO)[C@@H](O)[C@H](O)[C@H]2O)ccc1O [Sibiricoses A5, Sibiricose A5]	active	had a temperature recovery
